This note sets out measurements from patent US7612104B2, “Bicyclic aryl-sulfonic acid [1,3,4]-thiadiazol-2-yl-amides, processes for their preparation, pharmaceutical compositions and methods for their use” (Sanofi-Aventis, priority 2005, dated 2009).

In general, EC50 refers to the concentration at which the effect is half-maximal. High values mean a need for much substance, low ones an effect from little substance.

In this experiment the target is T1, human PPARgamma (Homo sapiens, UniProt P37231).
T1 construct: amino acids I152-Y475; expressed in transfected cells; host or cells: HEK cells, transiently transfected (pcDNA3-GAL4-humanPPARgammaLBD)
T1 sequence (P37231 182-477 isoform P37231-2 limits assumed): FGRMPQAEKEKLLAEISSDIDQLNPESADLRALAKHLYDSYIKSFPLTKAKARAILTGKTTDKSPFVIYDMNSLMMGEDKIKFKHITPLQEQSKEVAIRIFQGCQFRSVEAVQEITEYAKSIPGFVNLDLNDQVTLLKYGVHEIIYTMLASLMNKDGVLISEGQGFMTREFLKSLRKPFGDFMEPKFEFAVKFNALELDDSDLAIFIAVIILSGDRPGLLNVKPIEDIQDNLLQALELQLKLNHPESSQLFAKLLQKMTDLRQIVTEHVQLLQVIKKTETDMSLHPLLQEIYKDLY
Put plainly: Cellular PPARgamma assay (transiently transfected HEK cells, luciferase reporter). The class given is cell-based. To be noted: HEK cells transiently transfected with GAL4-humanPPARgammaLBD. The text has this: A transient transfection system is employed to determine the cellular PPARgamma activity of PPAR agonists. It is based on the use of a luciferase reporter plasmid (pGL3basic-5xGAL4-TK) and of a PPARgamma expression plasmid (pcDNA3-GAL4-humanPPARgammaLBD). Both plasmids are transiently transfected into human embryonic kidney cells (HEK cells). There is then expression in these cells of the fusion protein GAL4-humanPPARgammaLBD which binds to the GAL4 binding sites of the reporter plasmid. In the presence of a PPARgamma-active ligand, the activated fusion protein GAL4-humanPPARgammaLBD induces expression of the luciferase reporter gene, which can be detected in the form of a chemiluminescence signal after addition of a luciferase substrate. As a difference from the stably transfected PPARalpha reporter cell line, in the cellular PPARgamma assay the two components (luciferase reporter plasmid and PPARgamma expression plasmid) are transiently transfected into HEK cells because stable and permanent expression of the PPARgamma fusion protein is cytotoxic.
The luciferase reporter plasmid pGL3basic-5xGAL4-TK is based on the vector pGL3basic from Promega. The reporter plasmid is prepared by cloning five binding sites of the yeast transcription factor GAL4 (each binding site with the sequence 5′-CTCGGAGGACAGTACTCCG-3′), together with a 160 bp-long thymidine kinase promoter section (Genbank Accession #AF027128) 5′-upstream into pGL3basic. 3′-downstream of the thymidine kinase promoter is the complete luciferase gene from Photinus pyralis (Genbank Accession #M15077) which is already a constituent of the plasmid pGL3basic used. The cloning and sequencing of the reporter plasmid pGL3basic-5xGAL4-TK took place in analogy to the description in Sambrook J. et. al. (Molecular cloning, Cold Spring Harbor Laboratory Press, 1989).
The PPARgamma expression plasmid pcDNA3-GAL4-humanPPARgammaLBD was prepared by first cloning the cDNA coding for amino acids 1-147 of the yeast transcription factor GAL4 (Genbank Accession #P04386) into the plasmid pcDNA3 (from Invitrogen) 3′-downstream of the cytomegalovirus promoter. Subsequently, the cDNA of the ligand-binding domain (LBD) of the human PPARgamma receptor (amino acids I152-Y475; Accession #g1480099) 3′-downstream of the GAL4 DNA binding domain. Cloning and sequencing of the PPARgamma expression plasmid pcDNA3-GAL4-humanPPARgammaLBD again took place in analogy to the description in Sambrook J. et. al. (Molecular cloning, Cold Spring Harbor Laboratory Press, 1989). Besides the luciferase reporter plasmid pGL3basic-5xGAL4-TK and the PPARgamma expression plasmid pcDNA3-GAL4-humanPPARgammaLBD, also used for the cellular PPARgamma assay are the reference plasmid pRL-CMV (from Promega) and the plasmid pBluescript SK(+) from Stratagene. All four plasmids were prepared using a plasmid preparation kit from Qiagen, which ensured a plasmid quality with a minimal endotoxin content, before transfection into HEK cells.
The activity of PPARgamma agonists is determined in a 4-day assay which is described below. Before the transfection, HEK cells are cultivated in DMEM (#41965-039, Invitrogen) which is mixed with the following additions: 10% FCS (#16000-044, Invitrogen), 1% penicillin-streptomycin solution (#15140-122, Invitrogen) and 2 mM L-glutamine (#25030-024, Invitrogen).
Firstly, solution A, a transfection mixture which contains all four plasmids previously described in addition to DMEM, is prepared. The following amounts are used to make up 3 ml of solution A for each 96 well microtiter plate for an assay: 2622 μl of antibiotic- and serum-free DMEM (#41965-039, Invitrogen), 100 μl of reference plasmid pRL-CMV (1 ng/μl), 100 μl of luciferase reporter plasmid pGL3basic-5xGAL4-TK (10 ng/μl), 100 μl of PPARgamma expression plasmid pcDNA3-GAL4-humanPPARgammaLBD (100 ng/μl) and 78 μl of plasmid pBluescript SK(+) (500 ng/μl). […]
On the technique in general: In a reporter assay the amount or activity of a reporter protein is the signal.
On to `CCOc1cc(C(F)(F)F)ccc1C(=O)NC1Cc2ccc(S(=O)(=O)Nc3nnc(C(C)C)s3)cc2C1` (single isomer, unassigned; enantiomer 1) [Example 1.1, 2-Ethoxy-N-[5-(5-isopropyl-[1,3,4]thiadiazol-2-ylsulfamoyl)-indan-2-yl]-4-trifluoromethyl-benzamide (Enantiomer 1)], for which a half-maximal response (EC50) required 22 nM.
In the case of `CCOc1cc(C(F)(F)F)ccc1C(=O)NC1Cc2ccc(S(=O)(=O)Nc3nnc(C(C)C)s3)cc2C1` (single isomer, unassigned; enantiomer 2) [Example 1.2, 2-Ethoxy-N-[5-(5-isopropyl-[1,3,4]thiadiazol-2-ylsulfamoyl)-indan-2-yl]-4-trifluoromethyl-benzamide (Enantiomer 2)], the EC50 was > 10000 nM.
`CCOc1cc(C(F)(F)F)ccc1C(=O)N[C@@H]1CCc2ccc(S(=O)(=O)Nc3nnc(C(C)C)s3)cc2C1` [Example 6, 2-Ethoxi-N-[(R)-7-(5-isopropyl-[1,3,4]thiadiazol-2-ylsulfamoyl)-1,2,3,4-tetrahydro-naphthalene-2-yl]-4-trifluoromethyl-benzamide] displayed an EC50 of 200 nM.
To `CCOc1cc(C(F)(F)F)sc1C(=O)NC1Cc2ccc(S(=O)(=O)Nc3nnc(C(C)C)s3)cc2C1` (stereo not drawn) [Example 11, 3-Ethoxy-5-trifluoromethyl-thiophene-2-carboxylic acid [5-(5-isopropyl-[1,3,4]thiadiazol-2-ylsulfamoyl)-indan-2-yl]-amide] belongs > 10000 nM; to `CCOc1cc(C(F)(F)F)ccc1C(=O)NC1Cc2ccc(S(=O)(=O)Nc3nnc(C(C)C)s3)cc2C1` (racemic) [Example 1, 2-Ethoxy-N-[5-(5-isopropyl-[1,3,4]thiadiazol-2-ylsulfamoyl)-indan-2-yl]-4-trifluoromethyl-benzamide], 1 nM; to `CCOc1cc(C(F)(F)F)ccc1C(=O)N[C@H]1CCc2ccc(S(=O)(=O)Nc3nnc(C(C)C)s3)cc2C1` [Example 5, 2-Ethoxy-N-[(S)-7-(5-isopropyl-[1,3,4]thiadiazol-2-ylsulfamoyl)-1,2,3,4-tetrahydro-naphthalen-2-yl]-4-trifluoromethyl-benzamide], 100 nM.
